According to BindingDB's records for doi:10.1021/jm010988n (University of Regensburg, 2002):

Molecular target: Platelet-derived growth factor receptor (Mus musculus)
Test: The cells were stimulated with PDGF (100 ng/mL) for 10 min at room temperature. Then the cell lysates were analyzed by SDS-PAGE and immunoblotting with anti-phosphotyrosine antibodies. Quantification of IC50 values was based on the intensity of the signal for autophosphorylated PDGF receptor. Titration was done using four to ei

IC50 (pH 7.4) | IC50 | SMILES
20 µM |  | COc1ccc2[nH]c(C(=O)c3cc4cc(OC)ccc4[nH]3)cc2c1 [Bis(5-methoxy-1H-2-indolyl)methanone]
 | 5.7 µM | O=C(c1cc2ccccc2[nH]1)c1cc2cc(OC(=O)C3CCC3)ccc2[nH]1 [2-(1H-indol-2-ylcarbonyl)-1H-indol-5-yl cyclobutanecarboxylate]
20 µM |  | O=C(c1cc2ccccc2[nH]1)c1cc2cc(OCc3ccccc3)ccc2[nH]1 [5-(benzyloxy)-2-(1H-indol-2-ylcarbonyl)-1H-indole]

SMILES | IC50 (pH 7.4) | IC50
O=C(c1cc2ccccc2[nH]1)c1cc2cc(OCCCCI)ccc2[nH]1 [5-(4-Iodobutoxy-1H-2-indolyl)(1H-2-indolyl)methanone] | 12.5 µM | 
